For 29 compounds, CC50 and EC50 results are on record in US20230091047A1 (priority 2019, published 2023).

Like-named read-outs stand apart in the source and are kept apart here.

One data set in a line: in vitro. In kind it is cell-based. To be noted: HepG2 or HepG2.117 cells, ATPlite, mean value. The method in brief: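 Luminescent ATP quantitation served as the viability endpoint following a 3- or 4-day incubation with test compounds.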
On the technique in general: In ATP-based viability assays light output follows the ATP content of the culture.

Data set [1] concerns HBV (HepG2.117 cell line, inducibly HBV producing). In words: Anti-HBV activity: intracellular HBV DNA by real-time PCR in HepG2.117 cells after 3 days of treatment. Type of data set: cell-based, hepatitis B virus. To be noted: Hepatitis B virus, HepG2.117, 72 h, read-out: EC50 (μM, mean value). The method in brief: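 Inducible HBV-producing HepG2.117 line (Tet-off); 3-day exposure to serially diluted compound after induction; real-time PCR of intracellular viral DNA.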

Where [2] appears, read: human, 3-days incubation (unmarked values).
Where [3] appears, read: HepG2.117 cells, 3 days of treatment, intracellular HBV DNA by real-time PCR, mean value.
The mark [4] stands for this setting: human, 3-days incubation (not marked with *).
Setting [5] is: HepG2.117 cells, intracellular HBV DNA by real-time PCR, 3 days of treatment, mean value.

In the case of `COc1ccccc1-n1c(OC)nc2c(c1=O)CCN(C(=O)c1ccc(Cl)c(Cl)c1)C2` [Compound C54, 7-(3,4-dichlorobenzoyl)-2-methoxy-3-(2-methoxyphenyl)-5,6,7,8-tetrahydropyrido[3,4-d]pyrimidin-4(3H)-one], in the data set “in vitro” (setting [2]), the CC50 at 3 days is 29.7 µM. For the same compound, the EC50 in data set [1] (setting [3]) turned out to be 4.59 µM.
In the same order, the values of `CNC(=O)c1ccc(-n2c(NC(C)C)nc3c(c2=O)C[C@@H](C)N(C(=O)c2ccc(Cl)c(Cl)c2)C3)c(C)c1` [Compound C300a, 4-[(6R)-7-(3,4-dichlorobenzoyl)-6-methyl-4-oxo-2-[(propan-2-yl)amino]-5,6,7,8-tetrahydropyrido[3,4-d]pyrimidin-3(4H)-yl]-N,3-dimethylbenzamide] are above 50 µM and 0.06 µM.
`CNC(=O)c1ccc(-n2c(NC[C@@H](C)c3cccc(OC)c3)nc3c(c2=O)C[C@@H](C)N(C(=O)c2ccc(Cl)c(Cl)c2)C3)cc1` (single isomer, unassigned) [Compound C436b] returned a CC50 at 3 days in “in vitro” (setting [4]) of 22.3 µM. Besides, the EC50 in data set [1] (setting [5]) was determined as 0.36 µM.
Take `Cc1cc(-c2ncc[nH]2)ccc1-n1c(NC(C)C)nc2c(c1=O)C[C@@H](C)N(C(=O)c1ccc(Cl)c(Cl)c1)C2` [Compound C399]: the CC50 at 3 days in “in vitro” (setting [4]) came to 25.2 µM. In data set [1] (setting [5]), the EC50 turned out to be 0.24 µM.
In the data set “in vitro” (human, 4-days incubation (values marked with *)), `COc1ccccc1-n1c(NCC(C)C)nc2c(c1=O)CCN(C(=O)c1ccc(Cl)c(Cl)c1)C2` [Compound C22, 7-(3,4-dichlorobenzoyl)-3-(2-methoxyphenyl)-2-[(2-methylpropyl)amino]-5,6,7,8-tetrahydropyrido[3,4-d]pyrimidin-4(3H)-one] gave a CC50 at 4 days of 26.2 µM. Further, the EC50 in data set [1] (setting [3]) was found to be 21.7 µM.
Take `CNC(=O)c1ccc(-n2c(NC(C)C)nc3c(c2=O)C[C@@H](C)N(C(=O)c2ccc(C)c(Cl)c2)C3)cc1` [Compound C514]: the CC50 at 3 days in the data set “in vitro” (setting [4]) is above 50 µM. The EC50 in data set [1] (setting [5]) came to 0.61 µM.
On to `CNC(=O)c1ccc(-n2c(N3CC4(CCC4)C3)nc3c(c2=O)C[C@@H](C)N(C(=O)c2ccc(Cl)c(Cl)c2)C3)cc1` [Compound C332, 4-[(6R)-2-(2-azaspiro[3.3]heptan-2-yl)-7-(3,4-dichlorobenzoyl)-6-methyl-4-oxo-5,6,7,8-tetrahydropyrido[3,4-d]pyrimidin-3(4H)-yl]-N-methylbenzamide], for which it took 26 µM to reach half-maximal cytotoxicity in “in vitro” (setting [2]) (CC50 at 3 days). Further, the EC50 in data set [1] (setting [3]) was found to be 1.46 µM.
For `COc1ccccc1-n1c(N[C@H](C)CO)nc2c(c1=O)CCN(C(=O)c1ccc(Cl)c(Cl)c1)C2` (single isomer, unassigned) [Compound C62A, 7-(3,4-dichlorobenzoyl)-2-{[(2*R)-1-hydroxypropan-2-yl]amino}-3-(2-methoxyphenyl)-5,6,7,8-tetrahydropyrido[3,4-d]pyrimidin-4(3H)-one] the same measures were above 50 µM and 9.88 µM.
For the compound `CNC(=O)c1ccc(-n2c(NC(C)C)nc3c(c2=O)C[C@@H](C)N(C(=O)c2ccc(C)cc2)C3)cc1` [Compound C507], in the data set “in vitro” (setting [4]), the CC50 at 3 days was above 50 µM. For the same compound, the EC50 in data set [1] (setting [5]) was found to be 2.89 µM.
In the same order, the values of `CNC(=O)c1ccc(-n2c(NC(C)C)nc3c(c2=O)C[C@@H](C)N(C(=O)c2cnc4ccccc4n2)C3)cc1` [Compound C675] are above 50 µM and 1.6 µM.
As for `CNC(=O)c1ccc(-n2c(N[C@@H](C)c3cccc(F)c3)nc3c(c2=O)C[C@@H](C)N(C(=O)c2ccc(Cl)c(Cl)c2)C3)cc1` [Compound C306, 4-[(6R)-7-(3,4-dichlorobenzoyl)-2-{[(1S)-1-(3-fluorophenyl)ethyl]amino}-6-methyl-4-oxo-5,6,7,8-tetrahydropyrido[3,4-d]pyrimidin-3(4H)-yl]-N-methylbenzamide], the half-maximal cytotoxic concentration (CC50) at 3 days in the data set “in vitro” (setting [2]) is 19.3 µM. For the same compound, in data set [1] (setting [3]), the EC50 worked out at 0.08 µM.
For `CC(C)Nc1nc2c(c(=O)n1-c1ccc(S(C)(=O)=O)cc1)CCN(C(=O)c1cc3cc(F)c(F)cc3[nH]1)C2` [Compound C165, 7-(5,6-difluoro-1H-indole-2-carbonyl)-3-[4-(methanesulfonyl)phenyl]-2-[(propan-2-yl)amino]-5,6,7,8-tetrahydropyrido[3,4-d]pyrimidin-4(3H)-one] the same measures were above 50 µM and 0.05 µM.
In the same order, the values of `COc1ccccc1-n1c(NCCO)nc2c(c1=O)CCN(C(=O)c1ccc(Cl)c(Cl)c1)C2` [Compound C37, 7-(3,4-dichlorobenzoyl)-2-[(2-hydroxyethyl)amino]-3-(2-methoxyphenyl)-5,6,7,8-tetrahydropyrido[3,4-d]pyrimidin-4(3H)-one] are above 50 µM and 32.1 µM.
Compound `CNC(=O)c1ccc(-n2c(NC(C)C)nc3c(c2=O)C[C@@H](C)N(C(=O)c2cc(F)c(Cl)cc2Cl)C3)cc1` [Compound C472] returned a CC50 at 3 days in the data set “in vitro” (setting [4]) above 50 µM. In addition, in data set [1] (setting [5]), the EC50 came to 0.92 µM.
In the same order, the values of `CNC(=O)c1ccc(-n2c(NC(C)C)nc3c(c2=O)C[C@@H](C)N(C(=O)c2ccc(F)c(C(F)F)c2)C3)cc1` [Compound C634] are above 50 µM and 0.63 µM.
In “in vitro” (setting [4]), `CNC(=O)c1ccc(-n2c(NC(C)C)nc3c(c2=O)C[C@@H](C)N(C(=O)c2cc(F)c(Br)c(F)c2)C3)cc1` [Compound C519] returned a CC50 at 3 days above 50 µM. Further, the EC50 in data set [1] (setting [5]) turned out to be 0.02 µM.
In the same order, the values of `CNC(=O)[C@H]1CC[C@@H](n2c(N[C@@H](C)c3ccc(C(F)(F)F)cc3)nc3c(c2=O)C[C@@H](C)N(C(=O)c2ccc(Cl)c(Cl)c2)C3)CC1` [Compound C644] are 7.5 µM and 0.23 µM.
`CNC(=O)c1cc(-n2c(NC(C)C)nc3c(c2=O)C[C@@H](C)N(C(=O)c2ccc(Cl)c(Cl)c2)C3)[nH]n1` [Compound C355, 5-[(6R)-7-(3,4-dichlorobenzoyl)-6-methyl-4-oxo-2-[(propan-2-yl)amino]-5,6,7,8-tetrahydropyrido[3,4-d]pyrimidin-3(4H)-yl]-N-methyl-1H-pyrazole-3-carboxamide] showed a CC50 at 3 days in “in vitro” (setting [2]) of 34.2 µM. For the same compound, the 50% effective concentration (EC50) in data set [1] (setting [3]) amounted to 0.09 µM.
`COc1ccc(CNc2nc3c(c(=O)[nH]2)CCN(C(=O)c2cc4ccc(Cl)cc4[nH]2)C3)cc1` [Compound C79, 7-(6-chloro-1H-indole-2-carbonyl)-2-{[(4-methoxyphenyl)methyl]amino}-5,6,7,8-tetrahydropyrido[3,4-d]pyrimidin-4(3H)-one] returned a CC50 at 3 days in “in vitro” (setting [2]) of 37.5 µM. Also, the EC50 in data set [1] (setting [3]) worked out at 2.32 µM.
For `COc1ccc(CNc2nc3c(c(=O)[nH]2)CCN(C(=O)c2ccc(Cl)cc2)C3)cc1` [Compound C115, 7-(4-chlorobenzoyl)-2-{[(4-methoxyphenyl)methyl]amino}-5,6,7,8-tetrahydropyrido[3,4-d]pyrimidin-4(3H)-one] the same measures were 42.8 µM and 37.1 µM.
On to `CNC(=O)c1ccc(-n2c(NC(C)C)nc3c(c2=O)C[C@@H](C)N(C(=O)c2ccc(Cl)c(Cl)c2)C3)cn1` [Compound C344], for which the CC50 at 3 days in the data set “in vitro” (3-days incubation (unmarked values)) is above 50 µM. Further, the EC50 in data set [1] was 0.15 µM.
Compound `COc1ccccc1-n1c(NC(C)c2ccncc2)nc2c(c1=O)CCN(C(=O)c1ccc(Cl)c(Cl)c1)C2` (stereo not shown) [Compound C56, 7-(3,4-dichlorobenzoyl)-3-(2-methoxyphenyl)-2-{[1-(pyridin-4-yl)ethyl]amino}-5,6,7,8-tetrahydropyrido[3,4-d]pyrimidin-4(3H)-one] yielded a CC50 at 3 days in “in vitro” (setting [2]) above 50 µM. For the same compound, the EC50 in data set [1] (setting [3]) amounted to 1.93 µM.
In the same order, the values of `COc1ccccc1-n1c(NC2CCC2)nc2c(c1=O)CCN(C(=O)c1ccc(Cl)c(Cl)c1)C2` [Compound C32, 2-(cyclobutylamino)-7-(3,4-dichlorobenzoyl)-3-(2-methoxyphenyl)-5,6,7,8-tetrahydropyrido[3,4-d]pyrimidin-4(3H)-one] are 29.5 µM and 19.9 µM.
On to `CNC(=O)c1ccc(-n2c(NC(C)C)nc3c(c2=O)C[C@@H](C)N(C(=O)c2cc(Cl)c(Cl)cc2OC)C3)cc1` [Compound C590], for which, in the data set “in vitro” (setting [4]), the CC50 at 3 days was above 50 µM. Besides, in data set [1] (setting [5]), the EC50 came out at 12.4 µM.
In the same order, the values of `CNC(=O)c1ccc(-n2c(N[C@@H]3CCC34CCC4)nc3c(c2=O)C[C@@H](C)N(C(=O)c2ccc(Cl)c(Cl)c2)C3)cc1` (single isomer, unassigned) [Compound C346a] are 27.6 µM and 0.94 µM.
In the same order, the values of `CNC(=O)c1ccc(-n2c(NC(C)C)nc3c(c2=O)C[C@@H](C)N(C(=O)c2cc(F)cc(F)c2)C3)cc1` [Compound C502] are above 50 µM and 8.95 µM.
For `CNC(=O)c1ccc(-n2c(N[C@@H](C)c3nc[nH]n3)nc3c(c2=O)C[C@@H](C)N(C(=O)c2ccc(Cl)c(Cl)c2)C3)cc1` (single isomer, unassigned) [Compound C439b] the same measures were above 50 µM and above 10 µM.
The compound `COc1cc(-n2c(NC(C)C)nc3c(c2=O)CCN(C(=O)c2ccc(Cl)c(Cl)c2)C3)cc(S(C)(=O)=O)c1` [Compound C88, 7-(3,4-dichlorobenzoyl)-3-[3-(methanesulfonyl)-5-methoxyphenyl]-2-[(propan-2-yl)amino]-5,6,7,8-tetrahydropyrido[3,4-d]pyrimidin-4(3H)-one] registered a CC50 at 3 days in the data set “in vitro” (setting [2]) above 50 µM. For the same compound, in data set [1] (setting [3]), the EC50 came out at 4.99 µM.
In turn, `CNC(=O)c1ccc(-n2c(NC(C)C)nc3c(c2=O)C[C@@H](C)N(C(=O)c2ccc(Cl)c(OC(F)(F)F)c2)C3)cc1` [Compound C635] registered a CC50 at 3 days in the data set “in vitro” (setting [4]) above 50 µM. For the same compound, in data set [1] (setting [5]), the EC50 came to 0.07 µM.

As a reminder, the CC50 is the concentration at which the toxic effect on the cells reaches its halfway point. Low values mean greater toxicity to the cells, high ones lower toxicity to the cells. In general, EC50 refers to the midpoint of the concentration-response curve.
